Measured values reported in patent US9096591B2, “Tetracyclic compounds” (Medivation Technologies, Inc., priority 2007, dated 2015).
Where two headings read alike, the source gives them in different places.

Key:
[1] = system: synaptosomes of cortex of rat brain; assay: Glutamate-induced 45Ca2+ uptake into synaptosomes; format: biochemical, Wistar rats; details: for glutamate-induced 45Ca2+ uptake into synaptosomes of rat cortex, % of control: 50-100 μM; for % Ca of control (control-100%), glutamate-induced 45Ca2+ uptake into synaptosomes: rat cortex synaptosomes
Procedure: Synaptosomes were obtained from cerebral cortex of newborn (9-10 days) Wistar rats using standard Hajos method. The brain was homogenized with 10 volumes of cooled 0.32 M sucrose at 900 rpm. The homogenate was centrifuged at 1500 g for 10 min. and the resulted supernatant was centrifuged at 10000 g for 20 min. The radioactive label was accumulated by suspension of the synaptosomal P2-fraction in the incubation buffer A having the following composition: 132 mM NaCl, 5 mM KCl, 5 mM HEPES, 10 mM glucose, pH 7.4 (protein concentration of approximately 1.5-2 mg/ml). The mixture was further incubated for 5 min with 200 μM glutamate at 37° C. and then ^45Ca^2+ uptake was stopped by filtration through GF/B filters (Whatman, England) followed by three washes with cold buffer B (145 mM KCl, 10 mM Tris, 5.4 mM Trilon B, pH 7.4). The radioactivity probes were analyzed by fluid scintillation beta-analyzer (TriCarb, Perkin Elmer). All tests were performed in three parallel trials in 2-3 independent experiments. The amount of ^45Ca^2+ uptake was estimated by calculating the difference of radioactive label during the stimulation with glutamate and without the stimulation with agonist.
Specific ^45Ca^2+ uptake was estimated using the following equation: K(43/21)=[(Ca4−Ca3)/(Ca2−Ca1)]100%, where
Ca1—^45Ca^2+ uptake for the Control (without glutamate and the compound tested),
[…] glutamate-induced ^45Ca^2+ uptake (glutamate only),
Ca3—^45Ca^2+ uptake in the presence of the compound tested (without glutamate),
Ca4—^45Ca^2+ uptake in the presence of glutamate and the testing compound.
Statistical analysis of the results was performed using Student's t-test.

AMPA receptors = assay: AMPA-receptor activity: kainic acid-induced currents in Purkinje cells (patch-clamp); format: cell-based, rat; details: mean±SEM, control=100%
Procedure: The analysis of effects of the testing compounds on AMPA receptors was carried out using an electrophysiological patch-clamp method in whole cell configuration (Hamill et al., 1980) of the Purkinje cell fresh isolated from the cerebellum of juvenile rats (12-15 days). The isolation was carried out using a modified method (Kaneda et al., 1988) in which cerebral 400-600 μm sections were incubated for 60 min in the temperature controlled chamber in 10 mL of buffer solution (150 mM NaCl, 5 mM KCl, 2 mM CaCl2, 2 mM MgSO4.7H2O, 10 mM HEPES, 15 mM glucose, pH 7.42). The incubation solution was exchanged with the incubation buffer with pronase (2 mg/mL) and collagenase (1 mg/mL) for 70 min. After a 20 min wash with the original buffer, all sections were placed into the Petri dish and were separated using a Pasteur pipette. All solutions were constantly aerated with 100% O2 at 34° C. The composition of extracellular saline was: 150 mM NaCl, 5 mM KCl, 2.6 mM CaCl2, 2 mM MgSO4.7H2O, 10 mM HEPES, 15 mM glucose, pH 7.36. The transmembrane current was induced as a result of the activation of AMPA receptors by a superfusion with the agonist solution (kainic acid). The currents were measured using borosilicate microelectrodes (resistance […]) filled with 100 mM KCl, 11 mM EGTA, 1 mM CaCl2, 1 mM MgCl2, 10 mM HEPES, 5 mM ATP, pH 7.2. The currents were registered using EPC-9 (HEKA, Germany) and recorded with Pulse software package which was also purchased from HEKA. The analysis of observations was carried out using Pulsefit (HEKA, Germany) and the statistical significance was analyzed using a Student's T-test criteria. Data are presented as mean±SEM in % of control values.
Compounds of the invention were tested in 3-5 neurons. Every concentration of compound was repeated three-four times in every neuron. Data are presented as mean±SEM in % of Control values (Table 13+14, FIGS. 8-12). Control value=100%.

rat brain mitochondria [2] = assay: Ca2+-induced swelling of mitochondria (MPT pore opening); format: biochemical, Wistar rats; details: for A540 increase in mitochondrial suspension after addition of 100 μM of compound: 100 μM compound
Procedure: Rat liver and brain mitochondria were prepared from male Wistar rats. The rats were euthanized in a CO2 chamber followed by decapitation the procedure being in compliance with the Guidelines for Animal Experiments at IPAC RAS. […]
Brain mitochondria were isolated from the pooled forebrains of two rats. The modified method of Sims was used to isolate and purify brain mitochondria in a Percoll gradient. The brain was homogenized in “buffer A” (225 mM mannitol, 75 mM sucrose, 5 mM HEPES, 1 mM EGTA, pH 7.4 [KOH]) and centrifuged for 10 min at 1300 g. The supernatant was centrifuged for 10 min at 10000 g, and then the pellet was suspended in 15% Percoll and layered on a discontinuous gradient consisting of 40 and 23% Percoll, respectively, which was then centrifuged for 10 min at 30000 g without using brakes. The mitochondria were collected from the interface of the lower two layers and after resuspension in “buffer A”, the suspension was centrifuged at 16600 g for 10 min, then the pellet was resuspended in “buffer A”, BSA (10 mg/mL) was added to bind free fatty acids; and the suspensions was centrifuged again at 6300 g for 10 min. Following centrifugation the pelleted mitochondria were re-suspended in isolation medium without EGTA to achieve a protein concentration of 15-20 mg/ml.
Mitochondrial swelling caused by influx of solutes through open PT pores results in an increase in light transmission (i.e., a reduced turbidity). This turbidity change offers a convenient and frequently used assay of the MPT by measurement of absorbance in mitochondrial suspensions. In the present study, the MPT induced by Ca^2+ and inorganic phosphate (Ca/Pi) was monitored by absorbance changes at 540 nm in a cuvette in a Beckman DU 640 spectrophotometer in 1 ml of buffer A plus 0.8 μM rotenone, 5 mM succinate, 1 mM KH2PO4 and 0.5 mg or 0.2 mg protein of isolated liver or brain mitochondria, accordingly. Reaction was started by the addition of triggering agent (Ca^2+). Pre-treatment and reaction were performed at 30° C. Swelling rate was quantified as ΔA540/min/mg, calculated, in all cases, from a tangent to the steepest portion of the plot of A540 versus time.
Ca^2+-induced Swelling of mitochondria was used as the primary screening test for compounds influence on MPT pore opening. […] But the inhibition of swelling may be connected not only with direct inhibition of MPT pore opening but also with the impairment of respiratory function of mitochondria and with the compounds action on calcium transport into mitochondria. For the primary estimation of these possibilities the mitochondrial membrane potential and calcium retention capacity of mitochondria were measured. […] New synthesized compounds (except C-14 and C-43) alone induced an increase of brain mitochondria suspension turbidity. The mechanism of such effect needs additional investigations.

rat brain mitochondria [3] = assay: Mitochondrial membrane potential (safranine test); format: biochemical, Wistar rats; details: at concentrations up to 100 mkM
Procedure: The same experimental conditions were used for the assessment of alterations of the mitochondrial membrane potential, except that safranine was included in incubation medium at a final concentration of 10 mkM and succinate was added before the compounds of the invention. This concentration of safranine was determined before hand as the optimal compromise between signal/baseline ratio and interference of safranine itself with swelling induced by Ca/Pi (safranine tended to enhance Ca/Pi-induced swelling at concentrations above 20 mkM). Changes in the status of the mPT pore were assessed spectrophotometrically at 554 and 524 nm in a cuvette in a Beckman DU 640 spectrophotometer. A554-524 represents the characteristics of mitochondrial potential and A554-characteristics of mitochondrial swelling.

[4] = concentration reducing to 50% the initial rate of turbidity fall after calcium addition, read-out: IC50, decrease of calcium-induced swelling of brain mitochondria
[5] = read-out: IC50, Ca2+-induced (25-50 μM) swelling of brain mitochondria, rat brain mitochondria, Ca2+ 25-50 μM

CN1CCc2c(c3ccccc3n2CCc2nc(-c3ccncc3)cs2)C1 [Compound C1-4]
inhibition of glutamate-induced 45Ca2+ uptake into synaptosomes ([1]; 0.5 μM): ~12.6%
glutamate-induced 45Ca2+ uptake into synaptosomes of rat cortex, % of control [1]: ~131%
% Ca of control (control-100%), glutamate-induced 45Ca2+ uptake into synaptosomes ([1]; compound 0.1 μM): 99.1 ± 2.5%
% Ca of control (control-100%), glutamate-induced 45Ca2+ uptake into synaptosomes ([1]; compound 0.5 μM): 87.4 ± 3.7%
% Ca of control (control-100%), glutamate-induced 45Ca2+ uptake into synaptosomes ([1]; compound 1 μM): 96.2 ± 5.0%
% Ca of control (control-100%), glutamate-induced 45Ca2+ uptake into synaptosomes ([1]; compound 5 μM): 94.9 ± 5.7%
% Ca of control (control-100%), glutamate-induced 45Ca2+ uptake into synaptosomes ([1]; compound 10 μM): 94.3 ± 2.7%
% Ca of control (control-100%), glutamate-induced 45Ca2+ uptake into synaptosomes ([1]; compound 50 μM): 112.7 ± 10.1%
% Ca of control (control-100%), glutamate-induced 45Ca2+ uptake into synaptosomes ([1]; compound 100 μM): 131.5 ± 0.1%
kainic acid-induced currents in Purkinje cells, % of Control values (AMPA receptors; compound 10^−5 M): 100 ± 9%
kainic acid-induced currents in Purkinje cells, % of Control values (AMPA receptors; compound 10^−6 M): 109 ± 12%
kainic acid-induced currents in Purkinje cells, % of Control values (AMPA receptors; compound 10^−7 M): 114 ± 5%
kainic acid-induced currents in Purkinje cells, % of Control values (AMPA receptors; compound 10^−8 M): 119 ± 6%
kainic acid-induced currents in Purkinje cells, % of Control values (AMPA receptors; compound 10^−9 M): 129 ± 9%
IC50 (rat brain mitochondria [2]; [4]): ~94 µM
A540 increase in mitochondrial suspension after addition of 100 μM of compound (rat brain mitochondria [2]; rat brain mitochondria): 1 rel.units
IC50 (rat brain mitochondria [2]; [5]): 93.9 ± 16.4 µM
depolarization of brain mitochondria (rat brain mitochondria [3]): No depolarization

CN1CCc2c(c3ccccc3n2CCc2noc(-c3ccncc3)n2)C1 [Compound C4-3]
concentration at which glutamate-induced 45Ca2+ uptake into synaptosomes was not affected [1]: 0.1 to 50 µM
glutamate-induced 45Ca2+ uptake into synaptosomes of rat cortex, % of control [1]: ~126%
% Ca of control (control-100%), glutamate-induced 45Ca2+ uptake into synaptosomes ([1]; compound 0.1 μM): 93.2 ± 3.0%
% Ca of control (control-100%), glutamate-induced 45Ca2+ uptake into synaptosomes ([1]; compound 0.5 μM): 92.1 ± 3.3%
% Ca of control (control-100%), glutamate-induced 45Ca2+ uptake into synaptosomes ([1]; compound 1 μM): 101.0 ± 1.0%
% Ca of control (control-100%), glutamate-induced 45Ca2+ uptake into synaptosomes ([1]; compound 5 μM): 93.7 ± 6.8%
% Ca of control (control-100%), glutamate-induced 45Ca2+ uptake into synaptosomes ([1]; compound 10 μM): 94.7 ± 6.9%
% Ca of control (control-100%), glutamate-induced 45Ca2+ uptake into synaptosomes ([1]; compound 50 μM): 117.9 ± 6.0%
% Ca of control (control-100%), glutamate-induced 45Ca2+ uptake into synaptosomes ([1]; compound 100 μM): 125.6 ± 3.9%
kainic acid-induced currents in Purkinje cells, % of Control values (AMPA receptors; compound 3 × 10^−5 M): 80 ± 10%
kainic acid-induced currents in Purkinje cells, % of Control values (AMPA receptors; compound 10^−5 M): 100 ± 6%
kainic acid-induced currents in Purkinje cells, % of Control values (AMPA receptors; compound 10^−6 M): 139 ± 11%
kainic acid-induced currents in Purkinje cells, % of Control values (AMPA receptors; compound 10^−7 M): 149 ± 15%
kainic acid-induced currents in Purkinje cells, % of Control values (AMPA receptors; compound 10^−8 M): 145 ± 12%
kainic acid-induced currents in Purkinje cells, % of Control values (AMPA receptors; compound 10^−9 M): 100 ± 3%
IC50 (rat brain mitochondria [2]; [4]): ~76 µM
A540 increase in mitochondrial suspension after addition of 100 μM of compound (rat brain mitochondria [2]; rat brain mitochondria): 1 rel.units
IC50 (rat brain mitochondria [2]; [5]): 76 ± 12 µM
depolarization of brain mitochondria (rat brain mitochondria [3]): No depolarization

CN1CCc2c(c3cc(F)ccc3n2CCc2noc(-c3ccccc3)n2)C1 [Compound G6-f, 8-Fluoro-2-methyl-5-[2-(5-phenyl-1,2,4-oxadiazol-3-yl)ethyl]-2,3,4,5-tetrahydro-1H-pyrido-[4,3-b]indole]
melting point: 121.5 to 122.5 °C

CN1CCc2c(c3ccccc3n2CCc2noc(-c3ccccc3)n2)C1 [Compound G6-a, 2-Methyl-5-[2-(5-phenyl-1,2,4-oxadiazol-3-yl)ethyl]-2,3,4,5-tetrahydro-1H-pyrido[4,3-b]indole]
melting point: 111 to 112 °C

CN1CCc2c(c3cc(F)ccc3n2CCc2n[nH]c(=S)n2C)C1 [Compound G11-c, 5-[2-(8-Fluoro-2-methyl-2,3,4,5-tetrahydro-1H-pyrido[4,3-b]indol-5-yl)ethyl]-4-methyl-2,4-dihydro-1,2,4-triazole-3-thione]
melting point: 215 to 218 °C

COc1ccc2c(c1)c1c(n2CCc2nc(-c3ccccc3)cs2)CCN(C)C1 [Compound G8-b, 8-Methoxy-2-methyl-5-[2-(4-phenylthiazol-2-yl)ethyl]-2,3,4,5-tetrahydro-1H-pyrido[4,3-b]indole]
melting point: 135 to 136.5 °C

CN1CCc2c(c3cc(F)ccc3n2CCc2nc(-c3ccccc3)cs2)C1 [Compound G8-f, 8-Fluoro-2-methyl-5-[2-(4-phenylthiazol-2-yl)ethyl]-2,3,4,5-tetrahydro-1H-pyrido[4,3-b]indole]
melting point: 136.5 to 137 °C
